From patent US12441768B2, “Compositions and methods for treating endometriosis” (EndoMet Biosciences, Inc., priority 2018, dated 2025)
Where a SMILES comes first, the peptide text is derived from it.

How the values were obtained:
[1] = target: Wnt-responsive promoter (TCF/LEF); assay: Wnt-dependent luciferase reporter assay; assay type: cell-based, murine
How it was run: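 EC50 (uM) derived from inhibition of luminescence in Wnt3a-stimulated murine 3T3 cells expressing luciferase under a TCF/LEF promoter, with peptides added across a concentration range and vehicle as control.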

[2] = % Viability non-Wnt responsive cells
β-catenin = target: T1, β-catenin (Homo sapiens, UniProt P35222); assay: KD50 measurement using competitive fluorescence polarization (FP) with labelled TCF4; assay type: binding; conditions: fluorescence polarization, β-catenin; for Kd: read-out: β-Cat FP KD
T1 sequence (P35222 1-781): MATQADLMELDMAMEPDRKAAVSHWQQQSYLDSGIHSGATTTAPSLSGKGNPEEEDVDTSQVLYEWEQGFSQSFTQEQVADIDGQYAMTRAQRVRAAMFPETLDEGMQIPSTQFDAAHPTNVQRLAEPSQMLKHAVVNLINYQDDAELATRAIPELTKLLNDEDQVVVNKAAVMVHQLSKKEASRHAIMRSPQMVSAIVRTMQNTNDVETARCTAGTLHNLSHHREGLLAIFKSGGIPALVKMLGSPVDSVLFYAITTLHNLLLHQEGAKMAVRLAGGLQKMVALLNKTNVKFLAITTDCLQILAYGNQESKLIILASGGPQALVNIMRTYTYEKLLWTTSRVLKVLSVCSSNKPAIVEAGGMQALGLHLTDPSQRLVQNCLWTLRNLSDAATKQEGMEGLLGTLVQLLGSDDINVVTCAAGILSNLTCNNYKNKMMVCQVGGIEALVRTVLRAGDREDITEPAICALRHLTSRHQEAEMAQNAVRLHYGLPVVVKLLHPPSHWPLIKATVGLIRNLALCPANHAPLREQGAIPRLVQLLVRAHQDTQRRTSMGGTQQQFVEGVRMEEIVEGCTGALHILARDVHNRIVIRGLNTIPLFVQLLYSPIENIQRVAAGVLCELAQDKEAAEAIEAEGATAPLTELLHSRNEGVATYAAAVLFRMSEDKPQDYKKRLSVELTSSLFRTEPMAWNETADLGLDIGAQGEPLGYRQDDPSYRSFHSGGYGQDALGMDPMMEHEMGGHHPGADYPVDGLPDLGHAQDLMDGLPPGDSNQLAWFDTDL
How it was run: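 First, β-catenin at 100 nM is mixed with 5 nM labelled TCF4 at room temperature. Next, compound is added across serial dilutions (10 nM to 30 uM). Finally, fluorescence polarization is measured (ex 470 nm, em 520 nm); experiments are done three times.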

Row | SMILES | EC50 [1] | β-Cat FP Hill slope (β-catenin) | Kd (β-catenin) | viability [2]
1 | CC[C@H](C)[C@H](NC(=O)[C@H](CC(C)C)NC(=O)[C@H](Cc1ccccc1)NC(=O)[C@H](Cc1c[nH]c2ccccc12)NC(=O)[C@H](CCSC)NC(C)=O)C(=O)N[C@@H](CO)C(=O)N[C@@H](Cc1ccccc1)C(=O)N[C@@H](Cc1c[nH]c2ccccc12)C(=O)NCC(=O)O [compound 219] (Ac-MWFLISFWG-OH) | < 7.5 µM | 0.86 | 0.4 to 1 µM | 90.6%
2 | CC[C@H](C)[C@@H]1NC(=O)[C@H](CC(C)C)NC(=O)[C@H](C2CCCCC2)NC(=O)[C@H](Cc2c[nH]c3ccccc23)NC(=O)[C@@H](N)CCCCNC(=O)C[C@@H](C(=O)O)NC(=O)[C@H](Cc2c[nH]c3ccccc23)NC(=O)[C@H](C)NC(=O)[C@H](CO)NC1=O [compound 204] (HELM PEPTIDE1{K.W.[O=C([C@@H](N[*:1])C1CCCCC1)[*:2]].L.I.S.A.W.D}$PEPTIDE1,PEPTIDE1,1:R3-9:R3$$$V2.0) | < 7.5 µM | 0.74 | 0.4 to 1 µM | 108%
3 | CSCC[C@H](NC(=O)[C@H](CCCNC(=N)N)NC(=O)[C@H](CO)NC(=O)[C@@H](N)CCSC)C(=O)N[C@@H](Cc1c[nH]c2ccccc12)C(=O)N[C@@H](Cc1ccccc1)C(=O)N[C@@H](CC(C)C)C(=O)N[C@@H](CC(N)=O)C(=O)N[C@@H](CO)C(=O)N[C@@H](Cc1ccccc1)C(=O)N[C@@H](Cc1c[nH]c2ccccc12)C(=O)NCC(=O)O [compound 70] (H-MSRMWFLNSFWG-OH) | > 30 µM | – | > 30 µM | 98.5%
4 | CC[C@H](C)[C@H](NC(=O)[C@H](CC(C)C)NC(=O)[C@H](Cc1ccccc1)NC(=O)[C@H](Cc1c[nH]c2ccccc12)NC(=O)[C@H](CCSC)NC(=O)[C@H](CCCNC(=N)N)NC(=O)[C@H](CO)NC(=O)[C@@H](N)CCSC)C(=O)N[C@@H](CO)C(=O)N[C@@H](Cc1ccccc1)C(=O)N[C@@H](Cc1c[nH]c2ccccc12)C(N)=O [compound 72] (H-MSRMWFLISFW-NH2) | > 30 µM | – | > 30 µM | 88.6%
5 | CC[C@H](C)[C@H](NC(=O)[C@H](CC(C)C)NC(=O)[C@@H](NC(=O)[C@H](Cc1c[nH]c2ccccc12)NC(=O)[C@@H](N)CCCNC(=N)N)[C@@H](C)CC)C(=O)N[C@@H](CS)C(=O)N[C@@H](Cc1ccccc1)C(=O)N[C@@H](Cc1c[nH]c2ccccc12)C(=O)NCC(=O)O [compound 119] (H-RWILICFWG-OH) | 7.5 to 15 µM | 0.7 | 1 to 10 µM | 143%
6 | CC[C@H](C)[C@H](NC(=O)[C@H](CC(C)C)NC(=O)[C@@H](NC(=O)[C@H](Cc1c[nH]c2ccccc12)NC(=O)[C@@H](N)CCCCN)[C@@H](C)CC)C(=O)N[C@@H](CS)C(=O)N[C@@H](Cc1ccccc1)C(=O)N[C@@H](Cc1c[nH]c2ccccc12)C(=O)NCC(=O)O [compound 117] (H-KWILICFWG-OH) | 15 to 22.5 µM | – | > 30 µM | 138%
7 | CC[C@H](C)[C@H](NC(=O)[C@H](CC(C)C)NC(=O)[C@H](Cc1ccccc1)NC(=O)[C@@H](N)Cc1c[nH]c2ccccc12)C(=O)N[C@H](C(=O)N[C@H](C(=O)N[C@@H](Cc1c[nH]c2ccccc12)C(=O)O)[C@@H](C)O)[C@@H](C)O [compound 100] (H-WFLITTW-OH) | 7.5 to 15 µM | 2.8 | 1 to 10 µM | 102%
8 | CC[C@H](C)[C@H](NC(=O)[C@H](CC(C)C)NC(=O)[C@@H](NC(=O)[C@H](Cc1c[nH]c2ccccc12)NC(=O)[C@@H](N)Cc1c[nH]cn1)[C@@H](C)CC)C(=O)N[C@@H](CO)C(=O)N[C@@H](Cc1ccccc1)C(=O)N[C@@H](Cc1c[nH]c2ccccc12)C(=O)NCC(=O)O [compound 126] (H-HWILISFWG-OH) | < 7.5 µM | 0.99 | < 0.4 µM | 111%
9 | CC[C@H](C)[C@H](NC(=O)[C@H](CC(C)C)NC(=O)[C@H](Cc1ccccc1)NC(=O)[C@H](Cc1c[nH]c2ccccc12)NC(=O)[C@@H](N)CCSC)C(=O)N[C@@H](CCC(N)=O)C(=O)N[C@@H](Cc1ccccc1)C(=O)N[C@@H](Cc1c[nH]c2ccccc12)C(=O)NCC(=O)O [compound 143] (H-MWFLIQFWG-OH) | 7.5 to 15 µM | – | > 30 µM | 104%
10 | CC[C@H](C)[C@H](NC(=O)[C@H](CC(C)C)NC(=O)[C@H](Cc1ccccc1)NC(=O)[C@H](Cc1c[nH]c2ccccc12)NC(=O)[C@H](CCCCN)NC(=O)[C@H](CCCNC(=N)N)NC(=O)[C@H](CO)NC(=O)[C@@H](N)CCSC)C(=O)N[C@@H](CO)C(=O)N[C@@H](Cc1ccccc1)C(=O)N[C@@H](Cc1c[nH]c2ccccc12)C(N)=O [compound 87] (H-MSRKWFLISFW-NH2) | > 30 µM | – | > 30 µM | 114%
11 | CC[C@H](C)[C@H](NC(=O)[C@H](CC(C)C)NC(=O)[C@H](Cc1ccccc1)NC(=O)[C@H](Cc1c[nH]c2ccccc12)NC(=O)[C@H](CCCCN)NC(=O)[C@H](CCCNC(=N)N)NC(=O)[C@H](CO)NC(=O)[C@@H](N)CCCCN)C(=O)N[C@@H](CO)C(=O)N[C@@H](Cc1ccccc1)C(=O)N[C@@H](Cc1c[nH]c2ccccc12)C(N)=O [compound 93] (H-KSRKWFLISFW-NH2) | > 30 µM | – | > 30 µM | 94%

Further lines, with some results ahead:

Row | EC50 [1] | β-Cat FP Hill slope (β-catenin) | Kd (β-catenin) | SMILES | viability [2]
12 | > 30 µM | 0.9 | 0.4 to 1 µM | CC[C@H](C)[C@H](NC(=O)[C@H](Cc1c[nH]c2ccccc12)NC(=O)[C@@H](N)CCSC)C(=O)N[C@@H](CC(C)C)C(=O)N[C@H](C(=O)NC(C)(CO)C(=O)N[C@@H](Cc1ccccc1)C(=O)N[C@@H](Cc1c[nH]c2ccccc12)C(=O)NCC(=O)O)[C@@H](C)CC (stereo partly drawn) [compound 136] (HELM PEPTIDE1{M.W.I.L.I.[CC(CO)(N[*:1])C(=O)[*:2]].F.W.G}$$$$V2.0) | 106%
13 | < 7.5 µM | – | > 30 µM | CC[C@H](C)[C@H](NC(=O)[C@H](CC(C)C)NC(=O)[C@H](Cc1ccccc1)NC(=O)[C@H](Cc1c[nH]c2ccccc12)NC(=O)[C@@H](NC(=O)[C@H](CCCNC(=N)N)NC(=O)[C@H](CO)NC(=O)[C@@H](N)CCSC)[C@@H](C)CC)C(=O)N[C@@H](CO)C(=O)N[C@@H](Cc1ccccc1)C(=O)N[C@@H](Cc1c[nH]c2ccccc12)C(=O)NCC(=O)O [compound 55] (H-MSRIWFLISFWG-OH) | 101%
14 | 22.5 to 30 µM | 0.7 | 0.4 to 1 µM | CC[C@H](C)[C@H](NC(=O)[C@H](CC(C)C)NC(=O)[C@@H](NC(=O)[C@H](Cc1c[nH]c2ccccc12)NC(=O)[C@@H](N)CCCCN)[C@@H](C)CC)C(=O)N[C@@H](CO)C(=O)N[C@@H](Cc1ccccc1)C(=O)N[C@@H](Cc1c[nH]c2ccccc12)C(=O)NCC(=O)O [compound 125] (H-KWILISFWG-OH) | 113%
15 | 7.5 to 15 µM | 2.06 | 0.4 to 1 µM | CC[C@H](C)[C@H](NC(=O)[C@H](CC(C)C)NC(=O)[C@H](Cc1ccccc1)NC(=O)[C@H](Cc1c[nH]c2ccccc12)NC)C(=O)N[C@@H](CO)C(=O)N[C@@H](Cc1ccccc1)C(=O)N[C@@H](Cc1c[nH]c2ccccc12)C(=O)O [compound 111] (HELM PEPTIDE1{[meW].F.L.I.S.F.W}$$$$V2.0) | 99.8%
16 | < 7.5 µM | – | > 30 µM | CC[C@H](C)[C@H](NC(=O)[C@H](CC(C)C)NC(=O)[C@H](Cc1ccccc1)NC(=O)[C@H](Cc1c[nH]c2ccccc12)NC(=O)[C@@H](N)CCSC)C(=O)N[C@@H](CO)C(=O)N[C@@H](Cc1ccccc1)C(=O)N[C@@H](Cc1c[nH]c2ccccc12)C(=O)N[C@@H](CCCNC(=N)N)C(=O)NCC(=O)O [compound 49] (H-MWFLISFWRG-OH) | 103%
17 | < 7.5 µM | 1.05 | 0.4 to 1 µM | CC[C@H](C)[C@H](NC(=O)[C@H](CC(C)C)NC(=O)[C@H](Cc1ccccc1)NC(=O)[C@H](Cc1c[nH]c2ccccc12)NC(=O)[C@@H](N)CCSC)C(=O)N[C@@H](C)C(=O)N[C@@H](C)C(=O)N[C@@H](Cc1c[nH]c2ccccc12)C(=O)NCC(=O)O [compound 212] (H-MWFLIAAWG-OH) | 99.3%
18 | < 7.5 µM | – | > 30 µM | CC[C@H](C)[C@H](NC(=O)[C@H](CC(C)C)NC(=O)[C@H](Cc1ccccc1)NC(=O)[C@H](Cc1c[nH]c2ccccc12)NC(=O)[C@@H](N)CCSC)C(=O)N[C@@H](CS)C(=O)N[C@@H](Cc1ccccc1)C(=O)N[C@@H](Cc1c[nH]c2ccccc12)C(=O)NCCCC(=O)O [compound 153] (HELM PEPTIDE1{M.W.F.L.I.C.F.W.[O=C(O)CCCN[*:1]]}$$$$V2.0) | 104%
